One experiment addresses T1, tubulin (Sus scrofa, UniProt P02550+P02554).
T1 construct: purchased Cytoskeleton Inc., Denver, CO, USA
The experiment can be described thus: Tubulin polymerization inhibitory assay. It counts as biochemical. From the text: The substances’ effects on tubulin polymerization were examined using the Tubulin Polymerization Assay Kit (Cytoskeleton Inc., Denver, CO, USA) according to the supplier’s instructions, with details described in Appendix A..
The activity of compounds on tubulin polymerization was investigated using the Tubulin Polymerization Assay Kit (Cytoskeleton Inc., Denver, CO, USA), which works via fluorescent reporter enhancement. […] Docetaxel and vincristine (Apoteket AB, Stockholm, Sweden) served as positive stabilizing and destabilizing controls. Both were used at a 3 µM concentration in PBS.

Experiment [1] concerns multi-drug resistant K562R cell line. Also noted: method as in PMID 33038796. To be noted: cited from earlier work.
In experiment [2] the test system is SGC-7901 cancer cell line. Further details: method as in PMID 37182330. To be noted: cited from earlier work.

T1 sequence (P02554 whole entry): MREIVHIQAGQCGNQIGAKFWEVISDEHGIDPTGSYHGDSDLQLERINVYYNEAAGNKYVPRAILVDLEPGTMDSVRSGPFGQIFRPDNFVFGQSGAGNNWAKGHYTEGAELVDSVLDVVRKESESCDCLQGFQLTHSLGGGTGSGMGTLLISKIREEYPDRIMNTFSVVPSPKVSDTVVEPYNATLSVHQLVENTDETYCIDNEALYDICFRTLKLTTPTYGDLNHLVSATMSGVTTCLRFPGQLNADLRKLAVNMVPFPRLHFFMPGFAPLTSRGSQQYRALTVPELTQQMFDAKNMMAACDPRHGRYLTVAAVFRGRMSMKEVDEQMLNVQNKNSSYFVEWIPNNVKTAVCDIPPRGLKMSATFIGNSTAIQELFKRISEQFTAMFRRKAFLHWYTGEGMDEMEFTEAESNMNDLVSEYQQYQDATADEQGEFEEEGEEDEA
T1 sequence (P02550 whole entry): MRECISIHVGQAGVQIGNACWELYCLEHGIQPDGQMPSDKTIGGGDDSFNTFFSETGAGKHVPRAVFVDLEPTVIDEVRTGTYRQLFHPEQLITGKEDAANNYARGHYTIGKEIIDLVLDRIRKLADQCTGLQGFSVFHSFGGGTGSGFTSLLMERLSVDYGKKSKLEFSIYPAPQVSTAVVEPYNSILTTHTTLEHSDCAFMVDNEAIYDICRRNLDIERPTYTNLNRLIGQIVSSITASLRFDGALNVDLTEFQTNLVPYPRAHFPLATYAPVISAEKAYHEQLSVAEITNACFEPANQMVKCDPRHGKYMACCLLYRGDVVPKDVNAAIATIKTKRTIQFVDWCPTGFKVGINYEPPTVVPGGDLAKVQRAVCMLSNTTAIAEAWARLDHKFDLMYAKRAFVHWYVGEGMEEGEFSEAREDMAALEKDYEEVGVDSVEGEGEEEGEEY

Regarding `COc1ccc(/C=C\c2cc(OC)c(OC)c(OC)c2)cc1O` [CA-4, combretastatin A-4, reference compound], the “%inhibition” value at tubulin (conc 0.01 (unit not given; IC50 from this curve in µg/ml)) was 8.7%; at tubulin (conc 0.1 (unit not given; IC50 from this curve in µg/ml)), 21.2%; at tubulin (conc 1 (unit not given; IC50 from this curve in µg/ml)), 34.9%; on tubulin (conc 10 (unit not given; IC50 from this curve in µg/ml)) it was 59%; at tubulin (conc 100 (unit not given; IC50 from this curve in µg/ml)), 84.2%.
`Cc1cc(-c2cccc(-c3c[nH]c4ccccc34)n2)c2ccccc2n1` [Compound III]: in experiment [1], the “antiproliferative potency, times more effective than CA-4” value is given as 12 times and the “antiproliferative potency, times more effective than isoCA-4” value was 1.5 times.
On to `COc1cc(-c2nc3scc(-c4cc(Cl)cc(Cl)c4)n3n2)cc(OC)c1OC` [IV], for which, in experiment [2], the 50% inhibitory concentration (IC50) was 210 nM.

By %inhibition is commonly meant the percentage by which the read-out fell short of the control. Read a high %inhibition as a strong effect. By IC50 is commonly meant the concentration that inhibits the measured activity by half.

Source of the values: paper PMC11859928, “Design, Synthesis, and Antiproliferative Activity of Novel Indole/1,2,4-Triazole Hybrids as Tubulin Polymerization Inhibitors” (Pharmaceuticals, 2025).
